Measured values taken from patent publication US9763445B2, “Safened herbicidal compositions comprising a pyridine carboxylic acid herbicide” (Dow AgroSciences, LLC, priority 2014, dated 2017).

Experiments:
winter wheat (TRZAW) = test: Postemergence greenhouse trial, % visual injury on winter wheat; type: in vivo, Triticum aestivum; details: TRZAW
Experimental: (§1) Seeds of the desired test plant species were planted in Sun Gro MetroMix® 306 planting mixture, which typically has a pH of 6.0 to 6.8 and an organic matter content of about 30 percent, in plastic pots with a surface area of 103.2 square centimeters (cm^2). When required to ensure good germination and healthy plants, a fungicide treatment and/or other chemical or physical treatment was applied. The plants were grown for 7-36 days (d) in a greenhouse with an approximate 14-hour (h) photoperiod which was maintained at about 23° C. during the day and 22° C. during the night. Nutrients and water were added on a regular basis and supplemental lighting was provided with overhead metal halide 1000-Watt lamps as necessary. The plants were employed for testing when they reached the second or third true leaf stage.
(§2) Weighed amounts of technical material were dissolved in a volume of 97:3 volume per volume (v/v) acetone/dimethyl sulfoxide (DMSO) to stock solutions. […] The concentrated stock solutions were diluted with an aqueous mixture of 1.5% v/v of Agri-dex crop oil concentrate to provide the appropriate application rates. Compound requirements are based upon a 12 milliliter (mL) application volume at a rate of 187 liters per hectare (L/ha). Stocks solutions of the safeners were prepared following the same procedure. Spray solutions of the safeners and experimental compound mixtures were prepared by adding the stock solutions to the appropriate amount of dilution solution to form a 12 mL spray solution in two-way combinations. Formulated compounds were applied to the plant material with an overhead Mandel track sprayer equipped with 8002E nozzles calibrated to deliver 187 L/ha over an application area of 0.503 square meters (m^2) at a spray height of 18 inches (43 centimeters (cm)) above average plant canopy. Control plants were sprayed in the same manner with the solvent blank. All herbicide application (component a) rates are in g ae/ha and all safener (component b) rates are in g ai/ha.
(§3) The treated plants and control plants were placed in a greenhouse as described above and watered by sub-irrigation to prevent wash-off of the test compounds. After 20-22 d, the condition of the test plants as compared with that of the control plants was determined visually and scored on a scale of 0 to 100 percent where 0 corresponds to no injury and 100 corresponds to complete kill. The condition of the test plants was compared with that of the control plants as determined visually and scored on a scale of 0 to 100 percent, where 0 corresponds to no injury and 100 corresponds to complete kill. Colby's equation was used to determine the herbicidal effects expected from the mixtures.
(§4) The safener cloquintocet-mexyl was combined with compound 1, compound 2, compound 3, compound 7, compound 8, compound 9, compound 10, compound 11, compound 12, compound 13, compound 14, compound 15, compound 16, compound 17, compound 18, compound 19, and compound 20, and applied to spring wheat (TRZAS), winter wheat (TRZAW), and spring barley (HORVS) and the phytotoxicity of the herbicidal compositions was measured. […]

pigweed (AMARE) = test: Postemergence greenhouse trial, % visual injury on pigweed; type: in vivo, Amaranthus retroflexus; details: for % visual injury, observed (Ob): AMARE
Experimental: as §1, §2, §3
(§5) The safener cloquintocet-mexyl was combined with compound 1, compound 2, compound 4, compound 5, and compound 6, and applied to corn/maize (ZEAMX) and spring wheat (TRZAS) and the phytotoxicity of the herbicidal compositions was measured. In addition, the efficacy of the herbicidal composition on velvetleaf (ABUTH, Abutilon theophrasti), pigweed (AMARE, Amaranthus retroflexus), winter rape (BRSNW, Brassica napus), lambsquarters (CHEAL, Chenopodium album), thistle (CIRAR, Cirsium arvense), nutsedge (CYPES, Cyperus esculentus), poinsettia (EPHHL, Euphorbia heterophylla), wild buckwheat (POLCO, Polygonum convolvulus), giant foxtail (SETFA, Setaria faberi), and chickweed (STEME, Stellaria media) was evaluated. […]
(§6) The safener cloquintocet-acid and a number of agriculturally acceptable esters and salts (-mexyl, -dimethylammonium salt and -triethylammonium salt) were combined in varying ratios with compound 1 and applied to spring wheat (TRZAS), winter wheat (TRZAW), and spring barley (HORVS), and the phytotoxicity of the herbicidal compositions was measured. […]

nutsedge (CYPES) = test: Postemergence greenhouse trial, % visual injury on nutsedge; type: in vivo, Cyperus esculentus; details: for % visual injury, observed (Ob): CYPES
Experimental: as §1, §2, §3, §5, §6

common sunflower (HELAN) = test: Postemergence greenhouse trial, % visual injury on common sunflower; type: in vivo, Helianthus annuus
Experimental: as §1, §2, §3
(§7) The safener cloquintocet-acid and a number of agriculturally acceptable esters and salts (-mexyl, -dimethylammonium salt and -triethylammonium salt) were combined in varying ratios with compound 1 and applied to spring wheat (TRZAS), winter wheat (TRZAW), and spring barley (HORVS), and the phytotoxicity of the herbicidal compositions was measured. In addition, the efficacy of the herbicidal composition on pigweed (AMARE, Amaranthus retroflexus), nutsedge (CYPES, Cyperus esculentus), common sunflower (HELAN, Helianthus annuus), and common sorghum (SORVU, Sorghum vulgare).

common sorghum (SORVU) = test: Postemergence greenhouse trial, % visual injury on common sorghum; type: in vivo, Sorghum vulgare; details: for % visual injury, observed (Ob): SORVU
Experimental: as §1, §2
as §3, with “mixtures. […]” for “mixtures.”
as §7

corn/maize (ZEAMX) = test: Postemergence greenhouse trial, % visual injury on corn/maize; type: in vivo, Zea mays; details: for % visual injury, observed (Ob): ZEAMX
Experimental: as §1, §2, §3, §5

winter rape (BRSNW) = test: Postemergence greenhouse trial, % visual injury on winter rape; type: in vivo, Brassica napus; details: Brassica napus, post-emergence; alone, 35 g/ha; read-out: % visual injury, Ob
Experimental: as §1, §2, §3, §5

velvetleaf (ABUTH) = test: Postemergence greenhouse trial, % visual injury on velvetleaf; type: in vivo, Abutilon theophrasti; details: alone, 35 g/ha
Experimental: as §1, §2, §3
(§8) The safener cloquintocet-mexyl was combined with compound 1, compound 2, compound 4, compound 5, and compound 6, and applied to corn/maize (ZEAMX) and spring wheat (TRZAS) and the phytotoxicity of the herbicidal compositions was measured. In addition, the efficacy of the herbicidal composition on velvetleaf (ABUTH, Abutilon theophrasti), pigweed (AMARE, Amaranthus retroflexus), winter rape (BRSNW, Brassica napus), lambsquarters (CHEAL, Chenopodium album), thistle (CIRAR, Cirsium arvense), nutsedge (CYPES, Cyperus esculentus), poinsettia (EPHHL, Euphorbia heterophylla), wild buckwheat (POLCO, Polygonum convolvulus), giant foxtail (SETFA, Setaria faberi), and chickweed (STEME, Stellaria media) was evaluated.
as §4

spring wheat (TRZAS) = test: Postemergence greenhouse trial, % visual injury on spring wheat; type: in vivo, Triticum aestivum; details: alone, 35 g/ha
Experimental: as §1, §2, §3, §8, §4

wild pansy (VIOTR) = test: Postemergence greenhouse trial, % visual injury on wild pansy; type: in vivo, Viola tricolor; details: alone, 35 g/ha
Experimental: as §1, §2
as §3, with “mixtures. […]” for “mixtures.”

wild buckwheat (POLCO) = test: Postemergence greenhouse trial, % visual injury on wild buckwheat; type: in vivo, Polygonum convolvulus; details: alone, 35 g/ha
Experimental: as §1, §2, §3, §8, §4

chickweed (STEME) = test: Postemergence greenhouse trial, % visual injury on chickweed; type: in vivo, Stellaria media; details: alone, 35 g/ha
Experimental: as §1, §2, §3, §5

lambsquarters (CHEAL) = test: Postemergence greenhouse trial, % visual injury on lambsquarters; type: in vivo, Chenopodium album; details: Chenopodium album, post-emergence; alone, 35 g/ha; read-out: % visual injury, Ob
Experimental: as §1, §2, §3, §8, §4

thistle (CIRAR) = test: Postemergence greenhouse trial, % visual injury on thistle; type: in vivo, Cirsium arvense; details: Cirsium arvense, post-emergence; alone, 35 g/ha; read-out: % visual injury, Ob
Experimental: as §1, §2, §3, §5

giant foxtail (SETFA) = test: Postemergence greenhouse trial, % visual injury on giant foxtail; type: in vivo, Setaria faberi; details: alone, 35 g/ha
Experimental: as §1
Weighed amounts of technical material were dissolved in a volume of 97:3 volume per volume (v/v) acetone/dimethyl sulfoxide (DMSO) to stock solutions. […] The concentrated stock solutions were diluted with an aqueous mixture of 1.5% v/v of Agri-dex crop oil concentrate to provide the appropriate application rates. Compound requirements are based upon a 12 milliliter (mL) application volume at a rate of 187 liters per hectare (L/ha). […]
as §3, with “Colby's equation was used to determine the herbicidal effects expected from the mixtures.” left out
The safener cloquintocet-mexyl was combined with compound 1, compound 2, compound 4, compound 5, and compound 6, and applied to corn/maize (ZEAMX) and spring wheat (TRZAS) and the phytotoxicity of the herbicidal compositions was measured. […]

CCN(CC)CC.O=C(O)COc1ccc(Cl)c2cccnc12 [CQC-TEA]
0%: % visual injury, observed (Ob) (winter wheat (TRZAW); safener alone 2.5 g/ha) | % visual injury, observed (Ob) (winter wheat (TRZAW); safener alone 5 g/ha) | % visual injury, observed (Ob) (winter wheat (TRZAW); safener alone 10 g/ha) | % visual injury, observed (Ob) (winter wheat (TRZAW); safener alone 20 g/ha) | % visual injury, observed (Ob) (pigweed (AMARE); safener alone 2.5 g/ha) | % visual injury, observed (Ob) (pigweed (AMARE); safener alone 5 g/ha) | % visual injury, observed (Ob) (pigweed (AMARE); safener alone 10 g/ha) | % visual injury, observed (Ob) (pigweed (AMARE); safener alone 20 g/ha) | % visual injury, observed (Ob) (nutsedge (CYPES); safener alone 2.5 g/ha) | % visual injury, observed (Ob) (nutsedge (CYPES); safener alone 5 g/ha) | % visual injury, observed (Ob) (nutsedge (CYPES); safener alone 10 g/ha) | % visual injury, observed (Ob) (nutsedge (CYPES); safener alone 20 g/ha) | % visual injury, observed (Ob) (common sunflower (HELAN); safener alone 2.5 g/ha) | % visual injury, observed (Ob) (common sunflower (HELAN); safener alone 5 g/ha) | % visual injury, observed (Ob) (common sunflower (HELAN); safener alone 10 g/ha) | % visual injury, observed (Ob) (common sunflower (HELAN); safener alone 20 g/ha) | % visual injury, observed (Ob) (common sorghum (SORVU); safener alone 2.5 g/ha) | % visual injury, observed (Ob) (common sorghum (SORVU); safener alone 5 g/ha) | % visual injury, observed (Ob) (common sorghum (SORVU); safener alone 10 g/ha) | % visual injury, observed (Ob) (common sorghum (SORVU); safener alone 20 g/ha) | % visual injury, observed (Ob) (corn/maize (ZEAMX); safener alone 2.5 g/ha) | % visual injury, observed (Ob) (corn/maize (ZEAMX); safener alone 5 g/ha) | % visual injury, observed (Ob) (corn/maize (ZEAMX); safener alone 10 g/ha) | % visual injury, observed (Ob) (corn/maize (ZEAMX); safener alone 20 g/ha)

COC(=O)c1nc(-c2ccc3ccn(C(C)=O)c3c2F)c(F)c(N)c1Cl [compound 3]
85%: pest or weed control at 35 g/ha (lambsquarters (CHEAL))
60%: % visual injury, Ob (giant foxtail (SETFA))
0%: % visual injury, Ob (corn/maize (ZEAMX); alone, 35 g/ha)
70%: % visual injury, Ob (chickweed (STEME))
10%: % visual injury, Ob (nutsedge (CYPES); alone, 35 g/ha) | % visual injury, Ob (wild pansy (VIOTR)) | % visual injury, Ob (common sorghum (SORVU); alone, 35 g/ha)
97%: % visual injury, Ob (wild buckwheat (POLCO))
95%: pest or weed control at 35 g/ha (pigweed (AMARE); Amaranthus retroflexus, post-emergence, alone, 35 g/ha, read-out: % visual injury, Ob)
50%: % visual injury, Ob (velvetleaf (ABUTH)) | pest or weed control at 35 g/ha (thistle (CIRAR))
30%: plant injury at 35 g/ha (winter rape (BRSNW)) | % visual injury, Ob (spring wheat (TRZAS))

O=C(O)COc1ccc(Cl)c2cccnc12 [CQC-acid]
0%: % visual injury, observed (Ob) (winter wheat (TRZAW); safener alone 2.5 g/ha) | % visual injury, observed (Ob) (winter wheat (TRZAW); safener alone 5 g/ha) | % visual injury, observed (Ob) (winter wheat (TRZAW); safener alone 10 g/ha) | % visual injury, observed (Ob) (winter wheat (TRZAW); safener alone 20 g/ha) | % visual injury, observed (Ob) (pigweed (AMARE); safener alone 2.5 g/ha) | % visual injury, observed (Ob) (pigweed (AMARE); safener alone 5 g/ha) | % visual injury, observed (Ob) (pigweed (AMARE); safener alone 10 g/ha) | % visual injury, observed (Ob) (pigweed (AMARE); safener alone 20 g/ha) | % visual injury, observed (Ob) (nutsedge (CYPES); safener alone 2.5 g/ha) | % visual injury, observed (Ob) (nutsedge (CYPES); safener alone 5 g/ha) | % visual injury, observed (Ob) (nutsedge (CYPES); safener alone 10 g/ha) | % visual injury, observed (Ob) (nutsedge (CYPES); safener alone 20 g/ha) | % visual injury, observed (Ob) (common sunflower (HELAN); safener alone 2.5 g/ha) | % visual injury, observed (Ob) (common sunflower (HELAN); safener alone 5 g/ha) | % visual injury, observed (Ob) (common sunflower (HELAN); safener alone 10 g/ha) | % visual injury, observed (Ob) (common sunflower (HELAN); safener alone 20 g/ha) | % visual injury, observed (Ob) (common sorghum (SORVU); safener alone 2.5 g/ha) | % visual injury, observed (Ob) (common sorghum (SORVU); safener alone 5 g/ha) | % visual injury, observed (Ob) (common sorghum (SORVU); safener alone 10 g/ha) | % visual injury, observed (Ob) (common sorghum (SORVU); safener alone 20 g/ha) | % visual injury, observed (Ob) (corn/maize (ZEAMX); safener alone 2.5 g/ha) | % visual injury, observed (Ob) (corn/maize (ZEAMX); safener alone 5 g/ha) | % visual injury, observed (Ob) (corn/maize (ZEAMX); safener alone 10 g/ha) | % visual injury, observed (Ob) (corn/maize (ZEAMX); safener alone 20 g/ha)
